Like-named read-outs stand apart in the source and are kept apart here.
Columns and labels:
[1] = test system: IL-6 reactive STAT3 reporter gene; assay: IL-6 reactive STAT3 reporter gene test (pSTAT3-TA-Luc6 luciferase) in HepG2 cells; type: cell-based; conditions: Homo sapiens
Description: A pSTAT3-TA-Luc6 construct, which comprises 8 more STAT3 DNA binding sequence copies as compared to pSTAT-3-TA-Luc and thus, enables to better reflect STAT3 reporter gene assay, was prepared. STAT3 DNA binding sequence was amplified using pSTAT3-TA-Luc plasmid (Clontech, Palo Alto, Calif.) as the template, and oligonucleotide ([…]. SEQ ID NO: 1 (containing Kpn I site)) and oligonucleotide ([…] GAAGCAACGTTC (containing Xho I site)) as forward primer and reverse primer, respectively, by means of a thermocycler. The amplified PCR product was cloned, separated, and then inserted into Kpn I/Xho I site of pSTAT3-TA-Luc plasmid.
Human hepatoma cell line, HepG2 cell, was incubated in MEM (Minimal Essential Medium, WelGENE Inc, Daegu, Korea) medium under water-saturated condition at 37° C., 5% CO2. To this medium was added 10% (v/v) fetal bovine serum, streptomycin (100 U/mL) and penicillin (100 U/mL). 6-Well cell culture plate was allowed to grow cells up to 80%, and then the specimen was pre-treated for one hour. Then, the medium was changed into 50 μL of serum-free medium, and the mixed solution of 0.1 μL pSTAT3-TA-Luc6 construct and 0.3 μL lipofectamin reagent was added to each well and then allowed to react for 3 hours to transfect cells with pSTAT3-TA-Luc6 construct. The medium was changed to a fresh medium, and the plate was incubated for 24 hours to transiently transfect cells. The transfected cells were serum-starved with 1% BSA/DMEM, and treated with the samples for one hour and then, after adding IL-6, incubated for 3 hours. The mixture was washed with PBS, shaken for one minute with addition of 50 μL of lysis buffer (promega luciferase assay system). After adding 30-100 μL of luciferase substrate (Promega luciferase assay system), the mixture was measured by a luminometer within 5 minutes.
Among others Compounds 1 and 3 as the materials having high inhibitory effect on IL-6 activity were used at various concentration to measure the degree of inhibitory effect, and the results thereof are as shown in FIGS. 2 and 3.

[2] = test system: IL-6 induced STAT3 phosphorylation; assay: Test for inhibitory activity against STAT3 phosphorylation induced by IL-6 (Western blot, HepG2); type: cell-based, human; conditions: HepG2, 1, 3, 10, 30, 100 ug/ml, 10 ng/ml IL-6 (FIG. 4)
Description: HepG2 cells were divisionally inoculated in 6-well plate in the ratio of 5×10^4 cells/well, and grown to be 80% confluent. After changing to a serum-free medium and incubating for 6 hours, cells were pre-treated with the samples for one hour. […] Then the mixture was centrifuged (13,000×g, 15 minutes) to obtain a lysate as the supernatant. Herein, HepG2 cells not treated with IL-6 and the samples were used as the control group. The concentration of proteins was quantified by means of Bio-Rad DC protein assay kit, and the protein was loaded on 10% SDS-polyacrylamide gel (SDS-PAGE) and electrophoresed at 30 mA for 2 hours. After completion of the electrophoresis, the protein on gel was transcribed into PVDF membrane (Westran® S, pore size […]) at 90V for 90 minutes, and the transcribed membrane was blocked with Tris-buffered solution (T-TBS; 50 mM Tri-HCl, pH 7.6, 150 mM NaCl, 0.2% Tween-20, 5% skim milk) at 4° C. for 12 hours, and washed five time with T-TBS. The membrane was treated with polyclonal antibodies of phospho-STAT3 (1:1000 dilutions, respectively) as the primary antibody for 2 hours. After washing five times with T-TBS, the membrane was reacted with HRP-conjugated anti-rabbit antibody (1:5000 dilutions) as the secondary antibody for one hour. After washing with T-TBS, the film was developed in the dark room by means of ECL.

[3] = test system: IL-6 induced ERK phosphorylation; assay: Test for inhibitory activity against ERK phosphorylation induced by IL-6 (Western blot, HepG2); type: cell-based, human; conditions: HepG2, 30 μg/ml (FIG. 5)
Description: HepG2 cell was divisionally inoculated in 6-well plate, and then starved for 18 hours.
The starved cells were treated with the samples for one hour, and then stimulated with IL-6 or LIF (Upstate Biotechnology, USA) for 10 minutes. The specimen was treated with 5× cell lysis buffer (Promega) sometimes with vortexing under ice for 30 minutes. The cell lysate obtained as described under B in Experiment 1 (3) was dissolved in 8% SDS-PAGE gel, and transferred to the nitrocellulose membrane. This membrane was blocked with Tris-buffered solution (50 mM Tris-HCl (pH 7.4), 150 mM NaCl, 0.1% Tween 20) containing 5% non-fat dry milk at 4° C. Then, it was incubated together with an appropriate primary antibody (ERK) present in Tris-buffered solution (50 mM Tris-HCl (pH 7.4), 150 mM NaCl, 0.1% Tween 20) containing 5% non-fat dry milk, at room temperature for 1-2 hours. This membrane was washed five times with TBS buffer solution for 10 minutes, and incubated with 1:6000 diluted horseradish peroxidase-conjugated secondary antibodies for one hour. The membrane was washed 10 times with TBS buffer solution, and then mixed and incubated with the 1:1 mixture of HRP Substrate Luminol Reagent and HRP Substrate Peroxide Solution as ELC reagent (Millipore Corp. Ma USA). The chemiluminescent signals were visualized with X-ray film.

Respective cell lines = assay: Cytotoxicity assay (MTT); type: cell-based; conditions: 48 hours
Description: In testing the compounds in cell lines, if cells are killed due to a toxicity of the compounds at the treatment concentration, a significant result cannot be obtained. Therefore, the toxicity assay was conducted by treatment with the compounds as follows. Respective cell lines were maintained on 96-well cell culture plate in the medium comprising 10% FBS with 1% Penicillin G/streptomycin, and then incubated under 37° C., 5% CO2 condition. All the experiments were repeated three times. The samples were properly diluted, and then cells were treated with the diluted samples at the concentrations of 1, 3, 10, 30, 100 μg/ml. After 48 hours, 10% (v/v) 5 mg/mL 3-(4,5-dimethylthiazol-2-yl)-2,5-diphenyltetrazolium bromide (MTT; Sigma) was added to the cell culture. After 3 hours of the incubation, the medium was aspirated and washed with PBS. After adding DMSO (100 μl), the mixture was gently agitated for 5 minutes. The absorbance was measured at 570 nm by means of VERSA max microplate reader (Molecular Devices Inc.), and the average absorbance (±SE) values as obtained from three experiments were compared with t-test, a statistical significance of P<0.05. When Compounds 1 and 3 were used at the concentrations of 1, 3, 10, 30, 100 μg/ml, the survival rates of cells were 94, 76, 70, 67, 30%, respectively, by the treatment with Compound 1, and 74, 71, 65, 57, 19%, respectively, by the treatment with Compound 3. It means that at least 50% of cells survive at the concentration (for example, 30 μg/ml) of the compounds of the present invention for measuring IL-6 inhibitory activity.

[4] = HepG2, 20 ug/ml of sample, HepG2 cells, read-out: Inhibition % of IL-6 reactive STAT3 reporter gene activity

SMILES | melting point [°C] | inhibition at 20 µg/mL [1, 4] [%] | further results
CCc1ccc(Nc2nc3cc(N)ccc3o2)cc1 [Compound 1, N^2-(4-ethylphenyl)benzo[d]oxazole-2,5-diamine] | – | 97 | IC50 ([1]; HepG2 cells, various concentrations (FIGS. 2 and 3), read-out: IC50 of IL-6 inhibitory activity (STAT3 reporter gene)): 18.9 µM; Inhibitory activity on IL-6 induced STAT3 phosphorylation [2]: inhibited IL-6 expression in a concentration-dependent manner; Influence on IL-6 induced ERK phosphorylation [3]: did not influence on ERK phosphorylation; Survival rate of cells (Respective cell lines; 1 μg/ml): 94%; Survival rate of cells (Respective cell lines; 3 μg/ml): 76%; Survival rate of cells (Respective cell lines; 10 μg/ml): 70%; Survival rate of cells (Respective cell lines; 30 μg/ml): 67%; Survival rate of cells (Respective cell lines; 100 μg/ml): 30%
CCc1ccc(Nc2nc3cc(NC(=O)c4cc([N+](=O)[O-])ccc4Cl)ccc3o2)cc1 [Compound 6, 2-chloro-N-(2-(4-ethylphenylamino)benzo[d]oxazol-5-yl)-5-nitrobenzamide] | – | 65.6 | –
CCc1ccc(Nc2nc3cc(NC(=O)c4ccc(Cl)c(Cl)c4)ccc3o2)cc1 [Compound 7, 3,4-dichloro-N-(2-(4-ethylphenylamino)-benzo[d]oxazol-5-yl)benzamide] | – | 69.3 | –
CCc1ccc(Nc2nc3cc(NC(=O)c4cccc(CCl)c4)ccc3o2)cc1 [Compound 8, 3-(chloromethyl)-N-(2-(4-ethylphenyl-amino)benzo[d]oxazol-5-yl)benzamide] | – | > 80 | –
CCc1ccc(Nc2nc3cc(NC(=O)c4ccc(C(C)(C)C)cc4)ccc3o2)cc1 [Compound 12, 4-tert-butyl-N-(2-(4-ethylphenylamino)-benzo[d]oxazol-5-yl)benzamide] | – | > 80 | –
CCc1ccc(Nc2nc3cc(NC(=O)c4cc(OC)c(OC)c(OC)c4)ccc3o2)cc1 [Compound 14, N-(2-(4-ethylphenylamino)benzo[d]oxazol-5-yl)-3,4,5-trimethoxybenzamide] | > 250 | – | inhibition at 20 µg/mL ([1]; HepG2, read-out: Inhibition % of IL-6 reactive STAT3 reporter gene activity, 20 ug/ml of sample, HepG2 cells): > 80%
CCc1ccc(Nc2nc3cc(NC(=O)c4ccccc4Nc4cccc(C(F)(F)F)c4)ccc3o2)cc1 [Compound 16, N-(2-(4-ethylphenylamino)benzo[d]oxazol-5-yl)-2-(3-(trifluoromethyl)phenylamino)benzamide] | 174 to 176 | > 80 | –

Second part, led by results:

melting point [°C] | SMILES | inhibition at 20 µg/mL [1, 4] [%] | further results
> 250 | CCc1ccc(Nc2nc3cc(NC(=O)Cc4ccccc4)ccc3o2)cc1 [Compound 2, N-(2-(4-ethylphenylamino)benzo[d]oxazol-5-yl)-2-phenylacetamide] | 61.7 | –
> 250 | CCc1ccc(Nc2nc3cc(NC(=O)c4ccc(Cl)cc4)ccc3o2)cc1 [Compound 4, 4-chloro-N-(2-(4-ethylphenylamino)benzo[d]oxazol-5-yl)benzamide] | 12.1 | –
> 250 | CCc1ccc(Nc2nc3cc(NC(=O)c4ccc([N+](=O)[O-])cc4Cl)ccc3o2)cc1 [Compound 5, 2-chloro-N-(2-(4-ethylphenylamino)benzo[d]oxazol-5-yl)-4-nitrobenzamide] | 20 | –
> 250 | CCc1ccc(Nc2nc3cc(NC(=O)c4ccc(CC)cc4)ccc3o2)cc1 [Compound 9, 4-ethyl-N-(2-(4-ethylphenylamino)benzo[d]oxazol-5-yl)benzamide] | 63.3 | –
> 250 | CCc1ccc(Nc2nc3cc(NC(=O)c4cc(F)cc(C(F)(F)F)c4)ccc3o2)cc1 [Compound 10, N-(2-(4-ethylphenylamino)benzo[d]oxazol-5-yl)-3-fluoro-5-(trifluoromethyl)benzamide] | 50.2 | –
181.6 to 182 | CCOc1ccccc1C(=O)Nc1ccc2oc(Nc3ccc(CC)cc3)nc2c1 [Compound 11, 2-ethoxy-N-(2-(4-ethylphenylamino)-benzo[d]oxazol-5-yl)benzamide] | 58 | –
> 250 | CCc1ccc(Nc2nc3cc(NC(=O)c4ccc(OC)c(OC)c4)ccc3o2)cc1 [Compound 13, N-(2-(4-ethylphenylamino)benzo[d]oxazol-5-yl)-3,4-dimethoxybenzamide] | 26.2 | –
244.8 to 246 | CCCCCCCc1ccc(C(=O)Nc2ccc3oc(Nc4ccc(CC)cc4)nc3c2)cc1 [Compound 15, N-(2-(4-ethylphenylamino)benzo[d]oxazol-5-yl)-4-heptylbenzamide] | 57.2 | –

— patent US8614240B2, “Benzoxazole derivatives having inhibitory activity against interleukin-6, preparation method thereof, and pharmaceutical composition containing the same” (EWHA University-Industry Collaboration Foundation, priority 2010, dated 2013)
